Experimental data published in the CheMixHub drug solubility set.

Experiment: xn = mol fraction of the nth substance listed, in the solute-free solvent

CC(C)OC(=O)C(C)NP(=O)(OCC1OC(n2ccc(=O)[nH]c2=O)C(C)(F)C1O)Oc1ccccc1 (stereo unspecified) + CC(C)=O + O
solubility (g/100 g solution)
Details	278.15 K	283.15 K	288.15 K	293.15 K	298.15 K	303.15 K	308.15 K	313.15 K	318.15 K
x2 = 0.03333	0.447	0.659	0.884	1.19	1.57	2.08	2.72	3.52	4.39
x2 = 0.07199	1.86	2.63	3.43	4.47	5.72	7.3	9.16	11.4	13.7
x2 = 0.1174	3.81	5.24	6.7	8.54	10.7	13.3	16.2	19.6	23.1
x2 = 0.1714	5.39	7.25	9.19	11.6	14.2	17.4	21	25.1	29.1
x2 = 0.2368	6.68	8.82	11.1	13.8	16.9	20.4	24.2	28.4	32.6
x2 = 0.3176	8.37	10.8	13.6	16.7	20.2	24	28.1	32.4	36.8
x2 = 0.42	11.2	14.2	17.5	21.1	24.9	28.9	33.3	37.8	42.6
x2 = 0.5538	15	18.1	21.8	26.1	30.7	35.3	40.1	45	49.6
x2 = 0.7363	18.3	22.9	27.4	32.1	37.1	42.2	47	51.8	56.6

S=c1[nH]ncs1 + CC(C)=O + O
solubility (g/100 g solution)
Details	278.15 K	283.15 K	288.15 K	293.15 K	298.15 K	303.15 K	308.15 K	313.15 K	318.15 K	323.15 K
x2 = 0.1	1.78	2.36	2.99	3.78	4.76	6	7.45	9.31	11.5	14.2
x2 = 0.2	6.07	7.41	8.84	10.6	12.5	14.8	17.3	20.2	23.6	27.1
x2 = 0.3	11.4	13.3	15.3	17.4	19.6	22.2	24.9	28.1	30.9	34.4
x2 = 0.4	15.7	17.9	20.2	22.5	24.8	27.1	29.6	32.5	35.3	38.5
x2 = 0.5	19.8	21.7	23.7	25.6	27.8	30.3	32.6	34.8	37.3	40.1
x2 = 0.6	22	23.6	25.6	27.3	29.3	31.4	33.2	35.3	37.6	39.8
x2 = 0.7	22.6	24.3	26.2	27.7	29.5	31.4	33.2	35	37.1	39.3
x2 = 0.8	23.1	24.5	25.9	27.4	29.1	30.8	32.5	34	35.7	37.4
x2 = 0.9	21.4	22.6	24.2	25.6	27.2	28.6	30.4	32.1	33.7	35.3

CC(C)=CCCC(C)C1CCC2(C)C3=C(CCC12C)C1(C)CCC(O)C(C)(C)C1CC3 (stereo unspecified) + CC(C)O + O
solubility (g/100 g solution)
Details	278.15 K	288.15 K	298.15 K	308.15 K	318.15 K
x2 = 0.01234	2.03e-05	2.81e-05	3.2e-05	3.94e-05	5.13e-05
x2 = 0.09088	0.000156	0.000176	0.000221	0.00024	0.000254
x2 = 0.2604	0.0158	0.0209	0.0306	0.0368	0.0456
x2 = 0.6874	0.147	0.272	0.373	0.472	0.64

Cc1[nH]c(=O)c(C#N)cc1-c1ccncc1 + CC(C)O + O
solubility (g/100 g solution)
Details	278.15 K	283.15 K	288.15 K	293.15 K	298.15 K	303.15 K	308.15 K	313.15 K	318.15 K	323.15 K
x2 = 0.03225	0.00105	0.00126	0.00148	0.00173	0.00202	0.00231	0.00261	0.00296	0.00333	0.00376
x2 = 0.06974	0.00174	0.00206	0.00243	0.00283	0.0033	0.00374	0.00423	0.00479	0.00537	0.00604
x2 = 0.1139	0.00266	0.00311	0.00366	0.00429	0.00498	0.00565	0.00635	0.00712	0.00801	0.00906
x2 = 0.1666	0.00378	0.00445	0.00523	0.00608	0.00705	0.00798	0.009	0.0102	0.0114	0.0128
x2 = 0.2307	0.00502	0.00587	0.00684	0.00797	0.00927	0.0105	0.0119	0.0135	0.0151	0.017
x2 = 0.3103	0.00629	0.00741	0.00871	0.0101	0.0118	0.0133	0.015	0.0171	0.019	0.0214
x2 = 0.4117	0.00743	0.00875	0.0102	0.0119	0.0137	0.0155	0.0178	0.02	0.0224	0.0256
x2 = 0.5454	0.0083	0.00978	0.0115	0.0135	0.0155	0.0177	0.02	0.0226	0.0256	0.0291
x2 = 0.7297	0.00873	0.0102	0.012	0.0141	0.0163	0.0188	0.0214	0.0243	0.0274	0.0314

Nc1nccnc1Cl + CC(C)O + O
solubility (g/100 g solution)
Details	278.15 K	283.15 K	288.15 K	293.15 K	298.15 K	303.15 K	308.15 K	313.15 K	318.15 K	323.15 K
x2 = 0.03225	0.0425	0.0564	0.0738	0.092	0.112	0.133	0.154	0.178	0.201	0.227
x2 = 0.06974	0.0786	0.103	0.134	0.166	0.201	0.237	0.275	0.316	0.356	0.402
x2 = 0.1139	0.129	0.168	0.215	0.266	0.321	0.38	0.439	0.503	0.567	0.64
x2 = 0.1666	0.19	0.245	0.313	0.387	0.466	0.551	0.638	0.729	0.824	0.93
x2 = 0.2307	0.242	0.315	0.4	0.503	0.609	0.724	0.84	0.962	1.09	1.24
x2 = 0.3103	0.31	0.394	0.503	0.621	0.753	0.893	1.05	1.2	1.38	1.57
x2 = 0.4117	0.355	0.459	0.585	0.73	0.887	1.06	1.23	1.42	1.61	1.85
x2 = 0.5454	0.393	0.507	0.645	0.808	0.982	1.18	1.38	1.58	1.83	2.1
x2 = 0.7297	0.411	0.529	0.672	0.836	1.02	1.23	1.45	1.67	1.93	2.26
